# Laboratory results: BindingDB's records for doi:10.1016/s0960-894x(02)01027-2 (Glaxosmithkline, 2003)
# Target: Methionine--tRNA ligase (Staphylococcus aureus)
# Assay: Compound tested for inhibition of Staphylococcus aureus MRS(methionyl tRNA synthetase) in aminoacylation assay
row,IC50 [nM],SMILES
1,15,"Oc1cc(NCCCNCc2cccc(Cl)c2Cl)nc2ccccc12 [2-[3-(2,3-Dichloro-benzylamino)-propylamino]-1H-quinolin-4-one]"
2,140,"O=C(NCCCNc1cc(O)c2ccccc2n1)c1ccc(Cl)c(Cl)c1 [3,4-Dichloro-N-[3-(4-oxo-1,4-dihydro-quinolin-2-ylamino)-propyl]-benzamide]"
3,4.7,CCOc1c(Br)cc(SC)cc1CNCCCNc1cc(O)c2ccccc2n1 [2-[3-(3-Bromo-2-ethoxy-5-methylsulfanyl-benzylamino)-propylamino]-1H-quinolin-4-one]
4,4.3,CCOc1c(Cl)cc(OC)cc1CNCCCNc1cc(O)c2ccccc2n1 [2-[3-(3-Chloro-2-ethoxy-5-methoxy-benzylamino)-propylamino]-1H-quinolin-4-one]

# Target: Methionine--tRNA ligase (Staphylococcus aureus)
# Assay: as above
# Remark: another data set of the same source
row,IC50 [nM],SMILES
1,< 3,Oc1cc(NCCCNCc2cc(Cl)cc(Cl)c2Cl)nc2ccccc12
2,< 3,CCOc1c(I)cc(I)cc1CNCCCNc1cc(O)c2ccccc2n1
3,< 3,Oc1cc(NCCCNCc2cc(Br)cc(Br)c2)nc2ccccc12
